In ChEMBL document CHEMBL1123244, “Synthesis and aldose reductase inhibitory activity of substituted 2-oxoquinoline-1-acetic acid derivatives” (J Med Chem, 1986):
Calls of active or inactive are those of the source. The rule behind the calls is not given here.

target: Aldo-keto reductase family 1 member B1 (Rattus norvegicus, UniProt P07943); assay: Inhibition of crude aldose reductase of rat lens

**Q.** `COc1ccc2c(ccc(=O)n2C(C)C(=O)O)c1` (stereo unspecified) was tested. Which IC50 did it give?
**A.** 590 µM

**Q.** For `CC(C(=O)O)n1c(=O)ccc2cccc(O)c21` (stereo unspecified), which IC50 is on record?
**A.** 33 µM

**Q.** `Cc1cc(=O)n(C(C)C(=O)O)c2ccccc12` (stereo unspecified) was tested. Which IC50 did it give?
**A.** 470 µM

**Q.** With `COc1ccc2c(ccc(=O)n2CC(=O)O)c1` as the molecule, how does the IC50 read?
**A.** 0.91 µM

**Q.** How did the IC50 turn out when `O=C(O)CN1C(=O)c2cccc3cccc(c23)C1=O` [ALRESTATIN] was run?
**A.** 1.5 µM

**Q.** `Cc1cc(=O)n(CC(=O)O)c2ccc([N+](=O)[O-])cc12` was tested. Which IC50 did it give?
**A.** 0.45 µM

**Q.** With `O=C(O)Cn1c(=O)ccc2cccc(O)c21` as the molecule, how does the IC50 read?
**A.** 3.3 µM

**Q.** For `O=C(O)Cn1c(=O)ccc2cc(O)ccc21`, which IC50 is on record?
**A.** 2.4 µM

**Q.** `Cc1cc(=O)n(CC(=O)O)c2ccccc12` was tested. Which IC50 did it give?
**A.** 6 µM

**Q.** For `Cc1cc(=O)n(CCC(=O)O)c2ccccc12`, which IC50 is on record?
**A.** 110 µM

target: Aldo-keto reductase family 1 member B1 (Rattus norvegicus) (UniProt P07943); assay: Compound was tested for inhibition of crude aldose reductase obtained from rat lens, at the concentration of 100 uM

**Q.** How did the inhibition turn out when `COc1ccc2nc(O)ccc2c1` was run?
**A.** 25.8%

**Q.** How did the inhibition turn out when `CC(=O)Oc1cccc2ccc(O)nc12` was run?
**A.** 9.5%

**Q.** For `Cc1cc(=O)[nH]c2ccccc12`, which inhibition is on record?
**A.** 24%

**Q.** `Cc1cc(=O)n(C)c2ccccc12` was tested. Which inhibition did it give?
**A.** 42%

target: Aldo-keto reductase family 1 member B1 (Rattus norvegicus) (UniProt P07943); assay: Compound was tested for inhibition of crude aldose reductase obtained from rat lens, at the concentration of 100 uM; Inactive

**Q.** For `CCOC(=O)Cn1c(=O)cc(C)c2ccccc21`, which inhibition is on record?
**A.** inactive

target: Aldo-keto reductase family 1 member B1 (Rattus norvegicus) (UniProt P07943); assay: Compound was tested for 50% inhibition of crude aldose reductase obtained from rat lens

**Q.** For `O=C(O)Cn1ccccc1=O`, which inhibition is on record?
**A.** 33%
